Reference: patent US20220117920A1, “N-Aryl Benzenesulfonamides as Protonophores for the Treatment of Cancers, Metabolic Diseases and Traumatic Brain Injury” (University of Kentucky Research Foundation, priority 2019, published 2022)

Key:
[1] = system: mitochondrial ATP production; assay: Agilent Seahorse XF Real-Time ATP Rate Assay; type: cell-based, human; conditions: 3 μM
Protocol: (§3) Seahorse assay. Approximately 3×10^4 cells were seeded in XF96 Cell Culture microplate (80 μL of 3.75×10^5 cells/mL) for all experiments. On the next day, cell culture media were replaced with either Seahorse XF modified media with 25 mM glucose and 1 mM pyruvate. After media exchange, cells were treated with 1 μM of oligomycin A, 1.0 μM FCCP and mixture of 1.0 μM of rotenone and 1.0 μM of antimycin A in standard mitochondrial stress test conditions. To determine the uncoupler effects, FCCP was replaced with an equal volume of DMSO, or a compound to be tested in DMSO solution. ATP production rate was analyzed using Agilent Seahorse XF Real-Time ATP Rate Assay.

[2] = system: p62; assay: RT-qPCR of p62 mRNA in Huh7 cells; type: cell-based, human; conditions: Huh7, absence of CQ
Protocol: (§1) Total RNA was extracted with miRNeasy mini kit (Qiagen, Germany), and the corresponding cDNA was produced using iScript cDNA synthesis kit (BioRad, USA) from 1 μg of total RNA. Real time quantitative PCR (RT-qPCR) was performed using SsoAdvanced Universal SYBR Green supermix (BioRad, USA) with specific primers: p62 (SQSTM1: 5′-[…]-3′ (SEQ ID NO: 1) and 5′-[…]-3′ (SEQ ID NO: 2)); c-MYC (cMYC: 5′-[…]-3′ (SEQ ID NO: 3) and 5′-[…]-3′ (SEQ ID NO: 4)), Survivin (BIRC5, 5′-[…]-3′ (SEQ ID NO: 5) and 5′-[…]-3′ (SEQ ID NO: 6)), AXIN 2 (AXIN2: 5′-[…]-3′ (SEQ ID NO: 7) and 5′-[…]-3′ (SEQ ID NO: 8)), Cyclin D1 (5′-CCND1: […]-3′ (SEQ ID NO: 9) and 5′-[…]-3′ (SEQ ID NO: 10)), and b2-microglobulin (B2M: 5′-[…]-3′ (SEQ ID NO: 11) and 5′-[…]-3′ (SEQ ID NO: 12)). Transcript levels were normalized to β-actin or […] level as indicated using the ΔΔCt method.

[3] = system: DLD-1 cells; assay: Seahorse uncoupling assay (OCR) in DLD-1 cells; type: cell-based, human; conditions: testing compound 3 μM
Protocol: as §3

[4] = system: AMPK; assay: Western blot of AMPK (T172) and ACC (S79) phosphorylation in CRC cells; type: cell-based, human
Protocol: Biochemistry. Western blotting: Cells were lysed in the appropriate volume of lysis buffer: 50 mM HEPES, 100 mM NaCl, 2 mM EDTA, 1% (v/v) glycerol, 50 mM NaF, 1 mM Na3VO4, 1% (v/v) Triton X-100, with protease inhibitors. The following antibodies were used: AMPK (Cell Signaling, 2532, Cell Signaling Technologies, Danver, Mass., USA), pAMPK (Cell Signaling, 2535), ACC (Cell Signaling, 3676), pACC (Cell Signaling, 11818), Actin (Sigma, A1978). Antibodies for Axin 2, c-Myc and Cyclin D1 have been described previously. ATP analysis: Cells growing in 12-well plates were treated with DMSO or inhibitors in DMSO solution and lysed by adding 1 mL boiling doubly distilled water. Supernatants were analyzed by luminescence using ATP Determination Kit (Invitrogen, A22066; Thermo Fisher Scientific, Waltham, Mass., USA).

[5] = system: Wnt/β-catenin target genes; assay: Expression of downstream β-catenin targets in Huh7 cells (western blot, RT-qPCR); type: cell-based, human; conditions: Huh7, 36 h
Protocol: (§2) Primary antibodies are described in Table 1.
as §1

[6] = Gross-toxicity assay in mice; type: in vivo; conditions: intraperitoneal injections up to 15 mg/kg for 5-6 weeks
Protocol: FIGS. 20A-D show graphs and images illustrating FH535 effect in vivo. (A) Mice body weight after FH535 treatment. C57BL/6 mice (n=5) were treated by intraperitoneal injection with 15 mg/Kg of FH535 or DMSO vehicle control every 4 days for 6 weeks. Mice were monitored before injections for signs of body weight loss, impaired mobility, labored breathing and body score based on the Ullman-Culleré MH, Foltz CJ method. (B-D) FH535 reduces tumor growth in vivo in a xenograft tumor model. Huh7 cell were injected subcutaneously on the right flank of athymic nude mice. FH535 (15 mg/Kg) or vehicle (DMSO) were administrated by intraperitoneal injection every other day when tumor size reached 100 mm^3. (B) Tumor growth was monitored every other day until day 10 of starting treatments when mice were euthanized according to the AVMA guidelines, *p<0.05 (n=5, each group); (C) Tumor weight of excised tumors after 10 day treatment with FH535 reduced the tumor weight in 42±8% compared to vehicle treatment, **p<0.001 (n=4, each group). (D) H&E and ki67 stainings from one representative tumor of each group treatment. Pictures were taken at 400× magnification.
To validate further the in vivo anti-tumor effect of FH535, we performed a gross-toxicity assay in mice with FH535 doses ranging from 0 to 30 mg/kg. […] Next, we evaluated the in vivo anti-tumor activity of FH535 in a Huh7 tumor xenograft model. […]

[7] = system: Huh7 cells; assay: Western blot of autophagy markers LC3II and p62 in Huh7 cells; type: cell-based, human
Description: as §2

[8] = system: Huh7 cells; assay: Cyto-ID autophagy detection assay in Huh7 cells; type: cell-based, human; conditions: Huh7, 40 h, ±50 μM CQ
Protocol: Autophagy responses were monitored with the Cyto-ID autophagy detection reagent 2.0 (Enzo Life Sciences, USA) according to the manufacturer's instructions. Huh7 and PLC/PRF/5 cells were seeded in 12-well plates and treated the following day with drugs or DMSO vehicle control at the indicated concentrations. CQ was added to the corresponding wells to a final concentration of 50 μM 8 h prior harvesting. After 40 h of drug treatment, cells were collected and assessed for viability with Zombie Violet dye solution (BioLegend, USA) followed by Cyto-ID autophagy detection reagent staining. Flow cytometry analyses were performed in a BD LSRII at the Flow Cytometry and Cell Sorting Shared Resource Facility of the University of Kentucky Markey Cancer Center and data were analyzed with the FlowJo Software version 7.6.5 (Tree Star, USA). The autophagic flux was quantified by subtracting the Cyto-ID MFI value of the sample without CQ from the Cyto-ID MFI value of the sample with CQ for each condition according to the formula: […]

[9] = system: purified mitochondria from mouse liver; assay: Uncoupling assay (OCR) using purified mitochondria from mouse livers; type: biochemical; conditions: 5 μM/1 μM
Protocol: All the steps were carried out at 4° C. or on ice. After mice were euthanized with CO2 followed by rapid decapitation, whole liver was quickly dissected out on a cold block and homogenized using a Teflon-glass dounce homogenizer containing isolation buffer (215 mM mannitol, 75 mM sucrose, 0.1% BSA, 20 mM HEPES, 1 mM EGTA, adjusted to pH 7.2 with KOH). The homogenate was transferred to a 2 mL-microcentrifuge tube and spun at 1,300×g for 3 min. The supernatant was transferred to a fresh 2 mL-microcentrifuge tube and spun at 13,000×g for 10 min. The supernatant was discarded, and the crude mitochondrial pellet was resuspended in a 1.5 mL-microcentrifuge tubes and pelleted again at 10,000×g for 10 min. The supernatant was discarded, and the mitochondrial pellets were resuspended in isolation buffer to obtain an approximate concentration ≥10 mg/mL of mitochondria. The absolute protein concentration was determined using a bicinchoninic acid (BCA) protein assay kit (Pierce, Cat #23,227) by recording absorbance at 560 nm on a Biotek Synergy HT plate reader (Winooski, Vt., USA).
Mitochondrial Bioenergetics Measurements. Mitochondrial bioenergetic measurements were carried out using a Seahorse XFe96 Extracellular Flux Analyzer (Agilent Technologies, Santa Clara, Calif., USA) to measure oxygen consumption rate (OCR) during various states of respiration. The OCR were measured in the presence of different substrates, inhibitors and uncouplers of the electron transport chain using previous methods with slight modifications. The stocks used for the assays were 500 mM pyruvate, 250 mM malate, and 30 mM adenosine diphosphate (ADP), and 1 M succinate (pH for all was adjusted to 7.2). […] Stock solutions of FH535, Y3, FH535-M, and Y3-M were prepared at 5 mM in 100% DMSO. As per the instructions from XFe96 Extracellular Flux kit, the sensor cartridge was hydrated with water and kept at 37° C. overnight before the experiment. One hour before the assay was conducted, water was removed from assay plates and XF calibrant was added before re-incubation. The injection ports A to D of the sensor cartridge were loaded with 25 μL of different combinations of the above substrates/inhibitors/uncouplers as follows. Before loading, the stocks were diluted appropriately in the respiration buffer (RB) (125 mM KCl, 0.1% BSA, 20 mM HEPES, 2 mM MgCl2, and 2.5 mM KH2PO4; pH 7.2) to get the final concentrations in the respiration chamber of 5 μM pyruvate, 2.5 μM malate, 10 μM of succinate and 1 μM ADP (via Port A), 1 μM oligomycin A (via Port B), 4 μM FCCP or 5 μM/1 μM FH535 or 5 μM/1 μM Y3 or 5 μM/1 μM FH535-M or 5 μM/1 μM Y3-M (via Port C) and 0.1 μM antimycin A (via Port D) starting with the initial volume of 175 μL RB in the chamber and diluting it to 9×, 10×, 11× and 12× with every injection through ports A to D, respectively. Once loaded, the sensor cartridge was placed into the Seahorse XFe96 Flux Analyzer for automated calibration. Seahorse Standard XFe96 assay plates were used for loading mitochondria. Initially total mitochondria were diluted to 6 μg/30 μL in RB and 30 μL was loaded in each well resulting in 6 μg mitochondria/well. The assay plates were centrifuged at 3,000 rpm for 4 min at 4° C. to adhere liver mitochondria at the bottom of the wells. After centrifugation, 145 μL RB (pre-incubated to 37° C.) was added without disturbing the mitochondrial layer to obtain a final volume of 175 μL per well. […]

Structure (SMILES): Cc1cc([N+](=O)[O-])ccc1NS(=O)(=O)c1cc(Cl)ccc1Cl [FH535, 2,5-dichloro-N-(2-methyl-4-nitrophenyl)benzenesulfonamide]
- rate of ATP production in mitochondria [1]: decreased the rates of ATP production in mitochondria
- p62 mRNA levels [2]: increase of p62 mRNA levels
- uncoupling: OCR inhibited by oligomycin [3]: increased OCR inhibited by oligomycin
- time to AMPK activation after treatment [4]: ≤ 15 min
- ACC (S79 phosphorylation) ([4]; 3 μM): induced AMPK phosphorylation and ACC phosphorylation
- AMPK activity (T172 phosphorylation) ([4]; 3 μM): activated AMPK
- expression of downstream Wnt/β-catenin target genes [5]: reduced expression of endogenous downstream β-catenin target genes
- signs of body distress or toxicity (weight loss, ambulatory ability, respiration, dehydration) [6]: did not induce major signs of body distress or toxicity
- accumulation of LC3II in the presence of CQ (autophagic flux, ΔLC3II) ([7]; Huh7, 50 μM CQ 8 h): reduced accumulation of LC3II in the presence of CQ
- LC3II protein levels ([7]; Huh7, 40 h): increased the lipid-bound expression of LC3II levels in a dose-dependent manner
- p62 protein levels ([7]; Huh7, 40 h): increased
- autophagic flux (Cyto-ID) [8]: reduced accumulation of autophagic vesicles
- uncoupling: OCR blocked by oligomycin [9]: increased OCR in dose-dependent manner
